Ends that are not written are not given here. Peptide text beside a SMILES is read from it.
Experiments:
[1] = Serum calcium reducing activity in rats (atomic absorption spectrophotometry); type: in vivo; conditions: 80 μg/kg intravenously, Wistar rats; for prolongation of serum calcium reducing effect compared with h-CGRP / serum calcium reducing activity compared with h-CGRP: comparator h-CGRP; for serum calcium reducing activity compared with h-CGRP: same dose; for reduction of serum calcium concentration as compared with the control group: tail vein, vs dissolving medium group, FIG. 1
Protocol: (§1) Serum calcium and serum phosphate reducing activities: Assay method:
(§2) The peptide (1) of the present invention and known h-CGRP (each 80 μg) dissolved in citrate buffer, pH 6.5, containing 0.1% bovine serum albumin (hereinafter designated dissolving medium) (1 ml) were administered intravenously into the tail vein of Wistar rats, body weight 80-90 g, 5-6 rats in one group, at 80 μg/kg. After 30 and 60 mins. of administration, blood samples were collected from the abdominal descending aorta. The serum calcium concentration was measured by atomic adsorption spectrophotometry. Serum phosphate was measured by a method according to Goldenberg et al. [Clin. Chem., 12: 872-882 (1966)].

[2] = Serum phosphate reducing activity in rats (method of Goldenberg et al.); type: in vivo; conditions: 80 μg/kg intravenously, Wistar rats; for prolongation of serum phosphate reducing effect compared with h-CGRP / serum phosphate reducing activity compared with h-CGRP: comparator h-CGRP; for serum phosphate reducing activity compared with h-CGRP: same dose; for reduction of serum phosphate concentration as compared with the control group: tail vein, vs dissolving medium group, FIG. 2
Protocol: as §1, §2

| Molecule | duration of serum calcium reducing activity [1] | prolongation of serum calcium reducing effect compared with h-CGRP [1] | serum calcium reducing activity compared with h-CGRP [1] | reduction of serum calcium concentration as compared with the control group [1] | duration of serum phosphate reducing activity [2] | prolongation of serum phosphate reducing effect compared with h-CGRP [2] | serum phosphate reducing activity compared with h-CGRP [2] | reduction of serum phosphate concentration as compared with the control group [2] |
| --- | --- | --- | --- | --- | --- | --- | --- | --- |
| CC(C)C[C@H](NC(=O)[C@H](CCCNC(=N)N)NC(=O)[C@H](Cc1c[nH]cn1)NC(=O)[C@@H](NC(=O)[C@@H](NC(=O)[C@@H]1CSSC[C@H](NC(=O)[C@H](C)N)C(=O)N[C@@H](CC(N)=O)C(=O)N[C@@H]([C@@H](C)O)C(=O)N[C@@H](C)C(=O)N[C@@H]([C@@H](C)O)C(=O)N1)C(C)C)[C@@H](C)O)C(=O)N[C@@H](C)C(=O)NCC(=O)N[C@@H](Cc1ccccc1)C(=O)N[C@@H](CC(C)C)C(=O)N[C@@H](CO)C(=O)N[C@@H](CCCNC(=N)N)C(=O)N[C@@H](CO)C(=O)NCC(=O)NCC(=O)N[C@H](C(=O)NCC(=O)N[C@@H](CCCCN)C(=O)N[C@@H](CC(N)=O)C(=O)N[C@@H](CC(N)=O)C(=O)N[C@@H](Cc1ccccc1)C(=O)N[C@H](C(=O)N1CCC[C@H]1C(=O)N[C@H](C(=O)N[C@@H](CC(N)=O)C(=O)N[C@H](C(=O)NCC(=O)N[C@@H](CO)C(=O)N[C@@H](CCCCN)C(=O)N[C@@H](C)C(=O)N[C@@H](Cc1ccccc1)C(N)=O)C(C)C)[C@@H](C)O)C(C)C)C(C)C [[Asn^3, Phe^15,Gly^23] h-CGRP(1-37), [Asn^3,Phe^15,Gly^23] h-CGRP(1-37)] (HELM PEPTIDE1{A.C.N.T.A.T.C.V.T.H.R.L.A.G.F.L.S.R.S.G.G.V.G.K.N.N.F.V.P.T.N.V.G.S.K.A.F.[am]}$PEPTIDE1,PEPTIDE1,2:R3-7:R3$$$V2.0) | more than 2 hours | prolonged significantly | stronger than those of h-CGRP | 20-30% | more than 2 hours | prolonged significantly | stronger than those of h-CGRP | 20-30% |
| [Asp^14 ] h-CGRP(1-37) (ACDTATCVTHRLADLLSRSGGVVKNNFVPTNVGSKAF; ends and bridges not checked; cysteine pairing not given here; UniProt P06881 83-119, looked up, variant G14D) [R = H--Ala--NH--, A = Asp, B = Asp, C = Leu, D = Val] | more than 2 hours | prolonged significantly | stronger than those of h-CGRP | 20-30% | more than 2 hours | prolonged significantly | stronger than those of h-CGRP | 20-30% |
| desalanyl-deamino-[Asp^14 ] h-CGRP(2-37) [desalanyl-deamino-[Asp14] h-CGRP(2-37)] | more than 2 hours | prolonged significantly | stronger than those of h-CGRP | 20-30% | more than 2 hours | prolonged significantly | stronger than those of h-CGRP | 20-30% |
| CC(C)C[C@H](NC(=O)[C@H](CCCNC(=N)N)NC(=O)[C@H](Cc1c[nH]cn1)NC(=O)[C@@H](NC(=O)[C@@H](NC(=O)[C@@H]1CSSC[C@H](NC(=O)[C@H](C)N)C(=O)N[C@@H](CC(N)=O)C(=O)N[C@@H]([C@@H](C)O)C(=O)N[C@@H](C)C(=O)N[C@@H]([C@@H](C)O)C(=O)N1)C(C)C)[C@@H](C)O)C(=O)N[C@@H](C)C(=O)N[C@@H](CC(=O)O)C(=O)N[C@@H](CC(C)C)C(=O)N[C@@H](CC(C)C)C(=O)N[C@@H](CO)C(=O)N[C@@H](CCCNC(=N)N)C(=O)N[C@@H](CO)C(=O)NCC(=O)NCC(=O)N[C@H](C(=O)NCC(=O)N[C@@H](CCCCN)C(=O)N[C@@H](CC(N)=O)C(=O)N[C@@H](CC(N)=O)C(=O)N[C@@H](Cc1ccccc1)C(=O)N[C@H](C(=O)N1CCC[C@H]1C(=O)N[C@H](C(=O)N[C@@H](CC(N)=O)C(=O)N[C@H](C(=O)NCC(=O)N[C@@H](CO)C(=O)N[C@@H](CCCCN)C(=O)N[C@@H](C)C(=O)N[C@@H](Cc1ccccc1)C(N)=O)C(C)C)[C@@H](C)O)C(C)C)C(C)C [[Asn^3,Asp^14,Gly^23] h-CGRP(1-37)] (HELM PEPTIDE1{A.C.N.T.A.T.C.V.T.H.R.L.A.D.L.L.S.R.S.G.G.V.G.K.N.N.F.V.P.T.N.V.G.S.K.A.F.[am]}$PEPTIDE1,PEPTIDE1,2:R3-7:R3$$$V2.0) | more than 2 hours | prolonged significantly | stronger than those of h-CGRP | 20-30% | more than 2 hours | prolonged significantly | stronger than those of h-CGRP | 20-30% |
| CC(C)C[C@H](NC(=O)[C@H](CCCNC(=N)N)NC(=O)[C@H](Cc1c[nH]cn1)NC(=O)[C@@H](NC(=O)[C@@H](NC(=O)[C@@H]1CSSC[C@H](NC(=O)[C@H](C)N)C(=O)N[C@@H](CC(N)=O)C(=O)N[C@@H]([C@@H](C)O)C(=O)N[C@@H](C)C(=O)N[C@@H]([C@@H](C)O)C(=O)N1)C(C)C)[C@@H](C)O)C(=O)N[C@@H](C)C(=O)N[C@@H](CC(=O)O)C(=O)N[C@@H](Cc1ccccc1)C(=O)N[C@@H](CC(C)C)C(=O)N[C@@H](CO)C(=O)N[C@@H](CCCNC(=N)N)C(=O)N[C@@H](CO)C(=O)NCC(=O)NCC(=O)N[C@H](C(=O)N[C@H](C(=O)N[C@@H](CCCCN)C(=O)N[C@@H](CC(N)=O)C(=O)N[C@@H](CC(N)=O)C(=O)N[C@@H](Cc1ccccc1)C(=O)N[C@H](C(=O)N1CCC[C@H]1C(=O)N[C@H](C(=O)N[C@@H](CC(N)=O)C(=O)N[C@H](C(=O)NCC(=O)N[C@@H](CO)C(=O)N[C@@H](CCCCN)C(=O)N[C@@H](C)C(=O)N[C@@H](Cc1ccccc1)C(N)=O)C(C)C)[C@@H](C)O)C(C)C)C(C)C)C(C)C [Asn^3,Asp^14,Phe^15] h-CGRP(1-37), [Asn^3,Asp^14,Phe^15] h-CGRP(1-37)] (HELM PEPTIDE1{A.C.N.T.A.T.C.V.T.H.R.L.A.D.F.L.S.R.S.G.G.V.V.K.N.N.F.V.P.T.N.V.G.S.K.A.F.[am]}$PEPTIDE1,PEPTIDE1,2:R3-7:R3$$$V2.0) | more than 2 hours | prolonged significantly | stronger than those of h-CGRP | 20-30% | more than 2 hours | prolonged significantly | stronger than those of h-CGRP | 20-30% |
